Assay results reported in patent US11766430B2, “Methods of using a phenoxypropylamine compound to treat pain” (Minerva Neurosciences, Inc., priority 2018, dated 2023).
Several values for one entry are separate records, joined by “and”; a condition that tells them apart may be missing. Equal values may be shown once.

Test system: carrageenan-induced mechanical hyperalgesia in rats
Assay: Carrageenan-induced mechanical hyperalgesia, paw pressure test, MIN-117 1-10 mg/kg (Example 4)
Assay type: in vivo, male Sprague-Dawley rats
Settings: Carrageenan 2%; for Nociceptive threshold, control paw (mean ± s.e.m.): T0 (3 h after carrageenan, before dosing); for paw withdrawal threshold, control paw, Mean: n = 10
Protocol: In this model, inflammation is induced by intraplantar injection of carrageenan (2%) into the right hindpaw of the rat. Three hours later, reaction thresholds are measured using the paw pressure test. Pressure is gradually applied to both hind paws (inflamed and control) of the rat, and reaction thresholds are determined as the pressure (g) required to elicit paw withdrawal or vocalization. Morphine (3 mg/kg, s.c.), used as positive control.
The experiments in this study used fifty (50) male Sprague-Dawley rats (SPF status, Janvier, France), each weighing 183-244 g during the experimental phase. The rats were housed in a temperature (20-24° C.) and relative humidity (45%-65%) controlled room and acclimated to an artificial day/night cycle of 12 hours light (6.30 a.m. to 6.30 p.m.)/12 hours darkness. Rats had free access to sterilized tap water and were fed ad libitum with pelleted complete diet (reference A04, S.A.F.E.). Animals were housed 4 per cage (cages Type E) and were acclimated for a period of at least 5 days before any testing. Each rat was identified by tail markings. Based on the SPF status of the animal facilities, there is no reason to expect that contaminants were present in the food, water or bedding, at levels capable of interfering with the results of the tests.
Static mechanical hyperalgesia was assessed using the Paw Pressure test or Randall & Selitto test (Randall, L. O. and Selitto, J. J., A method for measurement of analgesic activity on inflamed tissue, Arch Int Pharmacodyn, 1957(111): 409-419). This test requires the application of an increasing pressure on the hind paws between a flat surface and a blunt pointer. This test is usually used with animals with one hind paw inflamed by an injection or injured by ligation, and one normal hind paw, to evaluate drugs for analgesic action. The apparatus exerts a steadily increasing force and reaction threshold is determined as the pressure (g) required to elicit paw withdrawal and/or vocalization. In the experiment, animals were gently handled by the experimenter and static mechanical hyperalgesia was assessed. Each reaction threshold measurement was done for both hind paws.
Five (5) experimental groups of 10 rats each were used. Each group was first injected with 100 μL of a 2% carrageenan suspension was injected into the plantar aspect of the right hindpaw. Three hours after carrageenan injection, nociceptive reaction thresholds (vocalization or paw withdrawal) were measured in order to select animals meeting the inclusion criteria: 20 g<paw withdrawal threshold<240 g (baseline). The 5 groups were then administered the following: • Group 1: vehicle (0.5% HPMC), i.p., solution (negative control); • Group 2: MIN-117 (1 mg/kg, i.p.) in 0.5% HPMC, suspension; • Group 3: MIN-117 (3 mg/kg, i.p.) in 0.5% HPMC, suspension; • Group 4: MIN-117 (10 mg/kg, i.p.) in 0.5% HPMC, suspension; and • Group 5: morphine (3 mg/kg, s.c.) in 0.9% NaCl, solution (positive control).
Thirty minutes after morphine injection, the antihyperalgesic effect of morphine was evaluated using the paw pressure test. For vehicle and MIN-117 administration, the antihyperalgesic effect was evaluated after 120 min. using the paw pressure test.
Vehicle and MIN-117 were intraperitoneally administered at 10 mL/kg. Morphine was subcutaneously administered at 5 mL/kg. Dosing and testing were performed in a random order by a blinded experimenter except for the morphine-treated group. Doses were expressed in terms of free active substance.
Results were expressed as: • The paw withdrawal threshold (mean±s.e.m.) in grams of contact pressure for each group, calculated from individual paw withdrawal thresholds • The percentage of variation of the paw withdrawal threshold calculated from the mean value of the vehicle-treated group • The percentage of activity of activity of the compound on carrageenan-induced mechanical hyperalgesia, calculated as follows: […]

[1] = 1 mg/kg i.p., T0 (before dosing)
[2] = 3 mg/kg i.p., T0 (before dosing)
[3] = 10 mg/kg i.p., T0 (before dosing)
[4] = MIN-117 1 mg/kg i.p. group, Baseline (before dosing)
[5] = MIN-117 1 mg/kg i.p., 120 min after treatment, hydrochloride, 1 mg/kg
[6] = MIN-117 3 mg/kg i.p. group, Baseline (before dosing)
[7] = MIN-117 3 mg/kg i.p., 120 min after treatment, hydrochloride, 3 mg/kg
[8] = MIN-117 10 mg/kg i.p. group, Baseline (before dosing)
[9] = MIN-117 10 mg/kg i.p., 120 min after treatment, hydrochloride, 10 mg/kg

Cc1nnc(-c2cc3c(OC[C@@H](O)CN4CCC(c5ccc(Cl)c(Cl)c5)CC4)cccc3o2)o1.Cl [MIN-117, (2S)-1-(4-(3,4-dichlorophenyl)piperidin-1-yl)-3-((2-(5-methyl-1,3,4-oxadiazol-2-yl)benzofuran-4-yl)oxy)propan-2-ol hydrochloride]
Effect on nociceptive threshold vs vehicle-treated group (in words) (1 mg/kg i.p., 120 min. after treatment): did not induce any significant increase
Nociceptive threshold, control paw (mean ± s.e.m.) (1 mg/kg i.p.): 402 ± 19.9 g
% variation vs control paw, injured paw [1]: −50%
% variation vs vehicle-treated group, injured paw [1]: 1%
Nociceptive threshold, injured paw (mean ± s.e.m.) [1]: 202 ± 8.7 g
% variation vs control paw, injured paw (1 mg/kg i.p., T0 + 120 min): −39%
% variation vs pre-drug threshold, injured paw (1 mg/kg i.p., T0 + 120 min): 14%
% variation vs vehicle-treated group, injured paw (1 mg/kg i.p., T0 + 120 min): 13%
Nociceptive threshold, injured paw (mean ± s.e.m.) (1 mg/kg i.p., T0 + 120 min): 230 ± 9.5 g
Effect on nociceptive threshold vs vehicle-treated group (in words) (3 mg/kg i.p., 120 min. later): significant increase
Nociceptive threshold, control paw (mean ± s.e.m.) (3 mg/kg i.p.): 392 ± 18.4 g
% variation vs control paw, injured paw [2]: −47%
% variation vs vehicle-treated group, injured paw [2]: 4%
Nociceptive threshold, injured paw (mean ± s.e.m.) [2]: 208 ± 7.4 g
% variation vs control paw, injured paw (3 mg/kg i.p., T0 + 120 min): −23%
% variation vs pre-drug threshold, injured paw (3 mg/kg i.p., T0 + 120 min): 42%
% variation vs vehicle-treated group, injured paw (3 mg/kg i.p., T0 + 120 min): 45%
Nociceptive threshold, injured paw (mean ± s.e.m.) (3 mg/kg i.p., T0 + 120 min, hydrochloride, 3 mg/kg): 296 ± 20.8 g
Effect on nociceptive threshold vs vehicle-treated group (in words) (10 mg/kg i.p., 120 min. later): significant increase
Nociceptive threshold, control paw (mean ± s.e.m.) (10 mg/kg i.p.): 384 ± 10.2 g
% variation vs control paw, injured paw [3]: −47%
% variation vs vehicle-treated group, injured paw [3]: 2%
Nociceptive threshold, injured paw (mean ± s.e.m.) [3]: 204 ± 6.5 g
% variation vs control paw, injured paw (10 mg/kg i.p., T0 + 120 min): −27%
% variation vs pre-drug threshold, injured paw (10 mg/kg i.p., T0 + 120 min): 53%
% variation vs vehicle-treated group, injured paw (10 mg/kg i.p., T0 + 120 min): 53%
Nociceptive threshold, injured paw (mean ± s.e.m.) (10 mg/kg i.p., T0 + 120 min, hydrochloride, 10 mg/kg): 312 ± 22.7 g
% variation vs control paw, injured paw [4]: −50%
% variation vs vehicle treated group, injured paw [4]: 1%
paw withdrawal threshold, control paw, Mean (MIN-117 1 mg/kg i.p. group, Baseline (before dosing, 3 h after carrageenan)): 402 g
% activity on carrageenan-induced mechanical hyperalgesia, injured paw (MIN-117 1 mg/kg i.p., 120 min): 15%
% variation vs control paw, injured paw (MIN-117 1 mg/kg i.p., 120 min): −39%
% variation vs pre-drug threshold, injured paw (MIN-117 1 mg/kg i.p., 120 min): 14%
% variation vs vehicle treated group, injured paw (MIN-117 1 mg/kg i.p., 120 min): 13%
paw withdrawal threshold, control paw, individual rats [5]: 400 g and 440 g and 340 g and 480 g and 360 g (4×) and 380 g and 320 g
paw withdrawal threshold, injured paw, individual rats [5]: 260 g (4×) and 220 g (2×) and 240 g and 200 g (2×) and 180 g
paw withdrawal threshold, control paw, Mean (MIN-117 1 mg/kg i.p., 120 min after treatment): 380 g
% variation vs control paw, injured paw [6]: −47%
% variation vs vehicle treated group, injured paw [6]: 4%
paw withdrawal threshold, control paw, Mean (MIN-117 3 mg/kg i.p. group, Baseline (before dosing, 3 h after carrageenan)): 392 g
% activity on carrageenan-induced mechanical hyperalgesia, injured paw (MIN-117 3 mg/kg i.p., 120 min): 55%
% variation vs control paw, injured paw (MIN-117 3 mg/kg i.p., 120 min): −23%
% variation vs pre-drug threshold, injured paw (MIN-117 3 mg/kg i.p., 120 min): 42%
% variation vs vehicle treated group, injured paw (MIN-117 3 mg/kg i.p., 120 min): 45%
paw withdrawal threshold, control paw, individual rats [7]: 380 g and 360 g (5×) and 440 g and 500 g and 320 g and 420 g
paw withdrawal threshold, injured paw, individual rats [7]: 360 g and 220 g and 420 g and 280 g (3×) and 340 g and 320 g and 260 g and 200 g
paw withdrawal threshold, control paw, Mean (MIN-117 3 mg/kg i.p., 120 min after treatment): 368 g
% variation vs control paw, injured paw [8]: −47%
% variation vs vehicle treated group, injured paw [8]: 2%
paw withdrawal threshold, control paw, Mean (MIN-117 10 mg/kg i.p. group, Baseline (before dosing, 3 h after carrageenan)): 384 g
% activity on carrageenan-induced mechanical hyperalgesia, injured paw (MIN-117 10 mg/kg i.p., 120 min): 64%
% variation vs control paw, injured paw (MIN-117 10 mg/kg i.p., 120 min): −27%
% variation vs pre-drug threshold, injured paw (MIN-117 10 mg/kg i.p., 120 min): 53%
% variation vs vehicle treated group, injured paw (MIN-117 10 mg/kg i.p., 120 min): 53%
paw withdrawal threshold, control paw, individual rats [9]: 440 g (3×) and 480 g and 520 g and 400 g and 340 g and 320 g and 360 g and 540 g
paw withdrawal threshold, injured paw, individual rats [9]: 320 g (2×) and 280 g (2×) and 340 g and 360 g and 480 g and 260 g and 240 g (2×)
paw withdrawal threshold, control paw, Mean (MIN-117 10 mg/kg i.p., 120 min after treatment): 428 g
